A value given as a limit tells only on which side of the number the result lay.

58 compounds from patent US20080221134A1, “8-ALKYNYLXANTHINES AND DERIVATIVES” (priority 2006, published 2008) can be followed below.

The target in one experiment is T1, Rat A2A AR (Rattus norvegicus, UniProt P30543).
T1 construct: A2A adenosine receptors from rat striatum; from tissue; host or cells: rat striatum
Briefly: Radioligand binding assay 1, rat A2A adenosine receptor. The following applies: rat striatum, [3H]MSX-2. The method, then: (§1) Rat brain preparations were used for A1- and A2A adenosine receptor (AR) and human recombinant cell samples for A1-, A2A- and A3 adenosine receptor radioligand binding studies. Affinity and selectivity was tested in displacement experiments with following radioligands: [^3H]CCPA for A1-adenosine receptors, [^3H]MSX-2 for A2A-receptors and [^3H]PSB-11 for A3-receptors. Results of these experiments are depicted in table 2b (human data) and table 2a (rat data). Radioligand binding test systems are e.g. generally described by Muller et al., Curr. Pharm. Des., 1996, 2, 501 and Weyler et al., ChemMedChem 2006, 1, 891 and references cited therein) These documents are incorporated herein by reference.

The next experiment addresses T2, Rat A1 AR (Rattus norvegicus, UniProt P25099).
T2 construct: Rat brain preparations were used for A1- and A2A adenosine receptor (AR); from tissue; host or cells: rat cortex
T2 sequence (P25099 1-326): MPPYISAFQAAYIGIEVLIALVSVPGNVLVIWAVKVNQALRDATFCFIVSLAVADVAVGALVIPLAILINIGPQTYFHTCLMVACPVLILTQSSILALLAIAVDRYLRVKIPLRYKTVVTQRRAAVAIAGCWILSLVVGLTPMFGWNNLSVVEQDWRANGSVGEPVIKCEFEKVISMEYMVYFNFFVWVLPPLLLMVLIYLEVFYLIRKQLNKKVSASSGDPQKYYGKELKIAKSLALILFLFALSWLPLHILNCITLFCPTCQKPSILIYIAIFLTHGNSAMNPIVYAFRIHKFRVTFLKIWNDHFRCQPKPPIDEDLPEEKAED
Briefly: Radioligand binding assay 1, rat A1 adenosine receptor. The following applies: rat cortex, [3H]CCPA. As for the experimental part: as §1

T1 sequence (P30543 whole entry): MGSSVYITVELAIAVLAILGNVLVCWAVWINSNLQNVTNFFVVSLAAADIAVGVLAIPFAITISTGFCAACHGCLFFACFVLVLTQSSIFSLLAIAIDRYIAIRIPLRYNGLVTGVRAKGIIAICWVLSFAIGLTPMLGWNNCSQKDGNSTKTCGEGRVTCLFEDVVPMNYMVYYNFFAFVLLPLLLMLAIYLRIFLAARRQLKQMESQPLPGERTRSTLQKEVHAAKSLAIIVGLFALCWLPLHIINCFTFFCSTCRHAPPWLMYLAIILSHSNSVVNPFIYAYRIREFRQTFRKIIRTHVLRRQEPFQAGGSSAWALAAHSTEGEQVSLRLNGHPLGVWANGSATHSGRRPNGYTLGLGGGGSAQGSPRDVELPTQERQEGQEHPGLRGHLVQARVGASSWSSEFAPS

Turning to `C#CCn1c(=O)c2c(nc(C#Cc3ccccc3OC)n2C)n(C)c1=O`, the Ki on Rat A2A AR and on Rat A1 AR was over 10000 nM in each case.
As to `C#CCn1c(=O)c2c(nc(C#Cc3cc(C)c(C)cc3C)n2C)n(C)c1=O`, the Ki on Rat A2A AR was 4340 ± 840 nM; at Rat A1 AR it was over 10000 nM.
Regarding `C#CCn1c(=O)c2c(nc(C#Cc3cc(OC)cc(OC)c3)n2C)n(C)c1=O`, the Ki at Rat A2A AR was 190 ± 50 nM; at Rat A1 AR it was over 10000 nM.
The matching figures for `C#CCn1c(=O)c2c(nc(C#Cc3ccc(OC)cc3)n2C)n(C)c1=O`: 123 ± 38 nM and over 10000 nM.
The matching figures for `C#CCn1c(=O)c2c(nc(C#Cc3ccc(C)cc3)n2C)n(C)c1=O`: 151 ± 8.4 nM and over 10000 nM.
The matching figures for `C#CCn1c(=O)c2c(nc(C#Cc3cccc(F)c3)n2C)n(C)c1=O`: 466 ± 36 nM and over 10000 nM.
Regarding `C#CCn1c(=O)c2c(nc(C#Cc3cccc(OCC)c3)n2C)n(C)c1=O`, the figures for the Ki on Rat A2A AR and at Rat A1 AR were 174 ± 42 nM and about 10000 nM, respectively.
On the same counts, the results for `C#CCn1c(=O)c2c(nc(C#Cc3ccc(OCC)c(OCC)c3)n2C)n(C)c1=O` are 951 ± 224 nM and over 1000 nM.
The matching figures for `C#CCn1c(=O)c2c(nc(C#Cc3cccc(OCC=C)c3)n2C)n(C)c1=O`: 152 ± 63 nM and at least 10000 nM.
The matching figures for `C#CCn1c(=O)c2c(nc(C#Cc3ccc(F)c(OC)c3)n2C)n(C)c1=O`: 70.3 ± 5.39 nM and over 1000 nM.
In the case of `C#CCn1c(=O)c2c(nc(C#Cc3cccc(OC)c3)n2CC#CC)n(C)c1=O`, the Ki at Rat A2A AR stood at 36.2 ± 4.5 nM; at Rat A1 AR it was 96 ± 16.4 nM.
Regarding `C#CCn1c(=O)c2c(nc(C#Cc3cccc(OC)c3)n2CC#N)n(C)c1=O`, the Ki at Rat A2A AR was 56.2 ± 12.9 nM; on Rat A1 AR, over 1000 nM.
The matching figures for `C#CCn1c(=O)c2c(nc(C#Cc3ccc(OC)c(F)c3)n2C)n(C)c1=O`: 194 ± 39 nM and over 1000 nM.
The matching figures for `C#Cn1c(=O)c2c(nc(C#Cc3ccc(Cl)c(Cl)c3)n2C)n(C)c1=O`: over 1000 nM and over 1000 nM.
On the same counts, the results for `C#CCn1c(=O)[nH]c2nc(C#Cc3cccc(OC)c3)n(C)c2c1=O` are 135 ± 28 nM and over 1000 nM.
In the case of `C#CCn1c(=O)c2c(nc(C#Cc3cccc(OC)c3)n2C)n(CC#C)c1=O`, the Ki on Rat A2A AR was 80.7 ± 21.1 nM; on Rat A1 AR, over 10000 nM.
The matching figures for `C#CCn1c(=O)c2c(nc(C#Cc3cccc(OC)c3)n2C)n(CCBr)c1=O`: 90 ± 25 nM and over 1000 nM.
On the same counts, the results for `C#CCn1c(=O)c2c(nc(C#Cc3cccc(OC)c3)n2C)n(CC2CO2)c1=O` (centres unmarked) are 38.2 ± 12 nM and over 1000 nM.
The matching figures for `C#CCn1c(=O)c2c(nc(C#Cc3ccc(OC)c(OC)c3)n2C)n(CC(=O)O)c1=O`: 272 ± 57 nM and over 1000 nM.
For the compound `C#CCn1c(=O)c2c(nc(C#Cc3ccc(OC)c(OC)c3)n2C)n(CC(=O)OCC)c1=O`, the Ki was 167 ± 82 nM at Rat A2A AR and at least 1000 nM on Rat A1 AR.
The matching figures for `C#CCn1c(=O)c2c(nc(C#Cc3ccc(OC)c(OC)c3)n2C)n(CC(=O)CC)c1=O`: 91.7 ± 38.3 nM and over 1000 nM.
The matching figures for `C#CCn1c(=O)c2c(nc(C#Cc3ccc(OC)c(OC)c3)n2C)n(CCC(=O)CC)c1=O`: 103 ± 15 nM and 111 ± 26 nM.
On the same counts, the results for `C#CCn1c(=O)c2c(nc(C#Cc3ccc(OC)c(OC)c3)n2C)n(CC=C)c1=O` are 9.5 ± 1.6 nM and over 1000 nM.
On to `C#CCn1c(=O)c2c(nc(C#Cc3ccc(OC)c(OC)c3)n2C)n(C[C@H](C)CO)c1=O`, for which the Ki on Rat A2A AR is 1.83 ± 0.38 nM; at Rat A1 AR, 146 ± 46 nM.
The matching figures for `C#CCn1c(=O)c2c(nc(C#Cc3ccc(OC)c(OC)c3)n2C)n(Cc2ccsc2)c1=O`: 28 ± 4.2 nM and over 1000 nM.
On the same counts, the results for `C#CCn1c(=O)c2c(nc(C#Cc3ccc(OC)c(OC)c3)n2C)n(CCC(F)(F)F)c1=O` are 24.2 ± 3.8 nM and 234 ± 47 nM.
For the compound `C#CCn1c(=O)c2c(nc(C#Cc3ccc(OC)c(OC)c3)n2C)n(CCCCF)c1=O`, the Ki on Rat A2A AR is 11.7 ± 1.7 nM; at Rat A1 AR, 209 ± 42 nM.
As for `C#CCn1c(=O)c2c(nc(C#Cc3ccc(OC)c(OC)c3)n2C)n(CCC=C)c1=O`, the Ki on Rat A2A AR was determined as 34.9 ± 6.9 nM; on Rat A1 AR, 176 ± 59 nM.
The matching figures for `C#CCn1c(=O)c2c(nc(C#Cc3ccc(OC)c(OC)c3)n2C)n(CC(=C)C)c1=O`: 28.6 ± 9.7 nM and over 1000 nM.
Regarding `C#CCn1c(=O)c2c(nc(C#Cc3ccc(OC)c(OC)c3)n2C)n(CCOCC)c1=O`, the values for the inhibition constant (Ki) on Rat A2A AR and on Rat A1 AR were 35.6 ± 14.1 nM and over 1000 nM, respectively.
Take `C#CCn1c(=O)c2c(nc(C#Cc3cccc(Cl)c3)n2C)n(CC)c1=O`: the Ki worked out at 141 ± 28 nM on Rat A2A AR and 488 ± 253 nM at Rat A1 AR.
The matching figures for `CCn1c(=O)n(Cc2ccco2)c(=O)c2c1nc(C#Cc1ccc(OC)c(OC)c1)n2C`: 90.9 ± 7 nM and 208 ± 54 nM.
On the same counts, the results for `CCn1c(=O)n(Cc2ccoc2)c(=O)c2c1nc(C#Cc1ccc(OC)c(OC)c1)n2C` are 90.7 ± 11.2 nM and 1250 ± 106 nM.
The matching figures for `C#CCn1c(=O)c2c(nc(C#Cc3ccc(OC)c(OC)c3)n2C)n(Cc2ccno2)c1=O`: 17.9 ± 5.5 nM and over 1000 nM.
Regarding `C#CCn1c(=O)c2c(nc(C#Cc3ccc4c(c3)OCO4)n2C)n(CC)c1=O`, the Ki on Rat A2A AR was 29.6 ± 6.1 nM; on Rat A1 AR, over 1000 nM.
The matching figures for `C#CCn1c(=O)c2c(nc(C#Cc3ccc(OC)c(OC)c3)n2C)n(CC(F)(F)F)c1=O`: 12.7 ± 2.8 nM and at least 1000 nM.
Turning to `C#CCn1c(=O)c2c(nc(C#Cc3ccc(OC)c(F)c3)n2C)n(CC)c1=O`, the figures for the Ki on Rat A2A AR and on Rat A1 AR were 52.6 ± 19.5 nM and at least 1000 nM, respectively.
The matching figures for `C#CCn1c(=O)c2c(nc(C#Cc3ccc(OC)cc3)n2C)n(CC)c1=O`: 28.6 ± 13.3 nM and over 1000 nM.
The matching figures for `C#CCn1c(=O)c2c(nc(C#Cc3ccc(OC)c(OC)c3)n2C)n(CCCF)c1=O`: 16.3 ± 2.8 nM and at least 1000 nM.
On to `C#CCn1c(=O)c2c(nc(C#Cc3ccc(OC)c(OC)c3)n2CC#C)n(CC)c1=O`, for which the Ki at Rat A2A AR is 132 ± 60 nM; at Rat A1 AR it was over 1000 nM.
On the same counts, the results for `C#CCn1c(=O)c2c(nc(C#Cc3ccoc3)n2C)n(CC)c1=O` are 220 ± 21 nM and over 1000 nM.
On the same counts, the results for `C#CCn1c(=O)c2c(nc(C#Cc3ccc(OC)c(OC)c3)n2C)n(CCNC)c1=O` are 134 ± 16 nM and at least 1000 nM.
On the same counts, the results for `C#CCn1c(=O)c2c(nc(C#Cc3cccc(OC)c3)n2C)n(CCC2OCCO2)c1=O` are 120 ± 18 nM and at least 1000 nM.
Take `C#CCn1c(=O)c2c(nc(C#Cc3ccccc3)n2C)n(C)c1=O` [drawing 452]: the Ki was 186 ± 60 nM at Rat A2A AR and over 1000 nM on Rat A1 AR.
As for `C#CCn1c(=O)c2c(nc(C#Cc3cccc(OC)c3)n2C)n(C)c1=O` [drawing 456], the results for the Ki on Rat A2A AR and on Rat A1 AR were 30.9 ± 8 nM and over 10000 nM, respectively.
The matching figures for `C#CCn1c(=O)c2c(nc(C#Cc3ccc(OC)c(OC)c3)n2C)n(C)c1=O` [drawing 458]: 32.7 ± 6.1 nM and over 10000 nM.
On the same counts, the results for `C#CCn1c(=O)c2c(nc(C#Cc3cccc(C)c3)n2C)n(C)c1=O` [drawing 460] are 43.4 ± 11.6 nM and over 10000 nM.
The matching figures for `C#CCn1c(=O)c2c(nc(C#Cc3cccc(Cl)c3)n2C)n(C)c1=O` [drawing 461]: 46 ± 9 nM and over 10000 nM.
Take `C#CCn1c(=O)c2c(nc(C#Cc3cccc(Br)c3)n2C)n(C)c1=O` [drawing 462]: the Ki on Rat A2A AR is 151 ± 19 nM; on Rat A1 AR it was at least 10000 nM.
As to `C#CCn1c(=O)c2c(nc(C#Cc3cccc(OC)c3)n2CC#C)n(C)c1=O` [drawing 467], the Ki on Rat A2A AR is 90 ± 35.7 nM; on Rat A1 AR, at least 10000 nM.
The matching figures for `C#CCn1c(=O)c2c(nc(C#Cc3cccc(OCCCO)c3)n2C)n(C)c1=O` [drawing 468]: 211 ± 46 nM and at least 10000 nM.
Take `C#CCn1c(=O)c2c(nc(C#Cc3cccc(OCCO)c3)n2C)n(C)c1=O` [drawing 469]: the Ki on Rat A2A AR is 117 ± 25 nM; on Rat A1 AR it was at least 10000 nM.
On the same counts, the results for `C#CCn1c(=O)c2c(nc(C#Cc3cccc(OCCCN(C)C)c3)n2C)n(C)c1=O` [drawing 470] are 40 ± 1 nM and 186 ± 3 nM.
The matching figures for `C#CCn1c(=O)c2c(nc(C#Cc3cccc(OCCOC)c3)n2C)n(C)c1=O` [drawing 471]: 219 ± 52 nM and at least 10000 nM.
As to `C#CCn1c(=O)c2c(nc(C#Cc3cccc(OC(C)=O)c3)n2C)n(C)c1=O` [drawing 472], the results for the Ki on Rat A2A AR and on Rat A1 AR were 140 ± 12 nM and 1170 ± 731 nM, respectively.
On to `C#CCn1c(=O)c2c(nc(C#Cc3cccc(OCCN(C)C)c3)n2C)n(C)c1=O` [drawing 473], for which the Ki at Rat A2A AR stood at 49 ± 5 nM; at Rat A1 AR, 194 ± 33 nM.
On the same counts, the results for `C#CCn1c(=O)c2c(nc(C#Cc3cccc(O)c3)n2C)n(C)c1=O` [drawing 475] are 173 ± 35 nM and 425 ± 99 nM.
The matching figures for `C#CCn1c(=O)c2c(nc(C#Cc3ccc4c(c3)OCO4)n2C)n(C)c1=O` [drawing 476]: 166 ± 34 nM and over 10000 nM.
